One block for each molecule: values may come before it.
Key:
CYP1A2 = target: T1, CYP1A2 (Homo sapiens, UniProt P05177); experiment: Inhibition of human CYP1A2 assessed as remaining activity at 50 uM using phenacetin as substrate preincubated for 3 mins followed by substrate addition and measured upto 15 mins by LC-MS/MS analysis (reference value: 85.4 +/- 3.42 %); assay type: ADME; conditions: probe phenacetin, time < 18 min, read-out: Activity
T1 sequence (P05177 whole entry): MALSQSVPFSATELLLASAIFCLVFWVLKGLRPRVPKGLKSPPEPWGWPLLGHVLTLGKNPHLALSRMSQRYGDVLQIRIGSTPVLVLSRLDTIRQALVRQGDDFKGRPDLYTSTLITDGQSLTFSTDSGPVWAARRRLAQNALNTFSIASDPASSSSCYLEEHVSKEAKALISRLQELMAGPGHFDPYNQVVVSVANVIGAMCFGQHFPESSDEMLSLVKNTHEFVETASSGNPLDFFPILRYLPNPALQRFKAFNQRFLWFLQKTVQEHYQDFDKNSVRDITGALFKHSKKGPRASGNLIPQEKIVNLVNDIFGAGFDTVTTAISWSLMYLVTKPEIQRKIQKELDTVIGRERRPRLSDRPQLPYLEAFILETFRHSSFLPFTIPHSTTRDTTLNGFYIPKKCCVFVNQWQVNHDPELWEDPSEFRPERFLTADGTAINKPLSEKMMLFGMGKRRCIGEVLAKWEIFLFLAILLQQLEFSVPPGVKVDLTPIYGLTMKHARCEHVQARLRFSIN

CYP2A6 = target: T2, CYP2A6 (Homo sapiens, UniProt P11509); experiment: Inhibition of human CYP2A6 assessed as remaining activity at 50 uM using coumarin as substrate preincubated for 3 mins followed by substrate addition and measured upto 15 mins by LC-MS/MS analysis; assay type: ADME; conditions: probe coumarin, time < 18 min, read-out: Activity
T2 sequence (P11509 whole entry): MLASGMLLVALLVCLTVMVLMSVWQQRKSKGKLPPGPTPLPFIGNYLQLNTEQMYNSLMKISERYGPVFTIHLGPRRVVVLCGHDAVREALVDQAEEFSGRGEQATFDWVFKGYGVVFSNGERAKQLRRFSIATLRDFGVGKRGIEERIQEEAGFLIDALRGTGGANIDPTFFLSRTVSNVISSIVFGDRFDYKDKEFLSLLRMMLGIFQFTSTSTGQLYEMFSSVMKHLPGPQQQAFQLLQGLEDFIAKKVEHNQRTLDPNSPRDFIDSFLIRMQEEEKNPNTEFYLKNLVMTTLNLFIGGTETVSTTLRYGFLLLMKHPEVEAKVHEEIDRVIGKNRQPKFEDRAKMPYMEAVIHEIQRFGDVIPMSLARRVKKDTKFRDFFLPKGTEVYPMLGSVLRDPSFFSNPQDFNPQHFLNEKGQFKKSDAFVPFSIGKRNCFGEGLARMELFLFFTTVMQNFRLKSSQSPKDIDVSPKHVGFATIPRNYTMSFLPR

CYP2B6 = target: T3, CYP2B6 (Homo sapiens, UniProt P20813); experiment: Inhibition of human CYP2B6 assessed as remaining activity at 50 uM using bupropion.HCl as substrate preincubated for 3 mins followed by substrate addition and measured upto 15 mins by LC-MS/MS analysis; assay type: ADME; conditions: buffer, probe bupropion.HCl, time < 18 min, read-out: Activity
T3 sequence (P20813 whole entry): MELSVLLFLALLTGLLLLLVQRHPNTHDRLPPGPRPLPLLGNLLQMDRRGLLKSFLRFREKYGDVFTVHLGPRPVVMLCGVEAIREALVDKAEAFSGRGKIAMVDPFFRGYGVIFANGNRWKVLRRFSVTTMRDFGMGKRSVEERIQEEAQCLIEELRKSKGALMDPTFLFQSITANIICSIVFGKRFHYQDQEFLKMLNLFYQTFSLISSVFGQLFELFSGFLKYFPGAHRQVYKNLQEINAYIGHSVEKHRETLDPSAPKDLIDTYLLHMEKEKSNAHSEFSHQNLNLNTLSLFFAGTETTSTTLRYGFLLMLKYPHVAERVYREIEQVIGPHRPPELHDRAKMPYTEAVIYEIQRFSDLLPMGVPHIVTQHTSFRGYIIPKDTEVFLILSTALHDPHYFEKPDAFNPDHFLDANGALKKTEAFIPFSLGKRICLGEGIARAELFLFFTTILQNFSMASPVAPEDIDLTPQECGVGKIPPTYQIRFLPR

CYP2C19 = CYP2C19 (Homo sapiens, UniProt P33261); experiment: Inhibition of human CYP2C19 assessed as remaining activity at 50 uM using omeprazole as substrate preincubated for 3 mins followed by substrate addition and measured upto 15 mins by LC-MS/MS analysis; assay type: ADME; conditions: probe omeprazole, time < 18 min, read-out: Activity
CYP2D6 = CYP2D6 (Homo sapiens, UniProt P10635); experiment: Inhibition of human CYP2D6 assessed as remaining activity at 50 uM using dextromethorphan as substrate preincubated for 3 mins followed by substrate addition and measured upto 15 mins by LC-MS/MS analysis; assay type: ADME; conditions: probe dextromethorphan, time < 18 min, read-out: Activity
CYP2C9 = CYP2C9 (Homo sapiens, UniProt P11712); experiment: Inhibition of human CYP2C9 assessed as remaining activity at 50 uM using diclofenac sodium as substrate preincubated for 3 mins followed by substrate addition and measured upto 15 mins by LC-MS/MS analysis; assay type: ADME; conditions: probe diclofenac sodium, time < 18 min, read-out: Activity
CYP3A4 [1] = target: T4, CYP3A4 (Homo sapiens, UniProt P08684); experiment: Inhibition of human CYP3A4 assessed as remaining activity at 50 uM using testosterone as substrate preincubated for 3 mins followed by substrate addition and measured upto 15 mins by LC-MS/MS analysis (reference value: 85.4 +/- 3.42 %); assay type: ADME; conditions: probe testosterone, time < 18 min, read-out: Activity
CYP2E1 = CYP2E1 (Homo sapiens, UniProt P05181); experiment: Inhibition of human CYP2E1 assessed as remaining activity at 50 uM using 4-nitrophenol as substrate preincubated for 3 mins followed by substrate addition and measured upto 15 mins by LC-MS/MS analysis; assay type: ADME; conditions: probe 4-nitrophenol, time < 18 min, read-out: Activity
CYP3A5 = CYP3A5 (Homo sapiens, UniProt P20815); experiment: Inhibition of human CYP3A5 assessed as remaining activity at 50 uM using testosterone as substrate preincubated for 3 mins followed by substrate addition and measured upto 15 mins by LC-MS/MS analysis; assay type: ADME; conditions: probe testosterone, time < 18 min, read-out: Activity
Cytochrome P450 3A4 [2] = target: T5, Cytochrome P450 3A4 (Homo sapiens, UniProt P08684); experiment: Inhibition of CYP3A4 (unknown origin) at 10 to 50 uM by LC-MS/MS analysis; assay type: ADME; conditions: TDE = time-dependent effect, dose lower 10 µM, time lower 5 min, dose upper 50 µM, time upper 15 min
Cytochrome P450 3A4 [3] = target: T5, Cytochrome P450 3A4; experiment: Inhibition of CYP3A4 (unknown origin) incubated for 5 to 15 mins by LC-MS/MS analysis; assay type: ADME; conditions: at 10 to 50 µM, dose lower 10 µM, time lower 5 min, dose upper 50 µM, time upper 15 min
CYP3A4 [4] = target: T4, CYP3A4; experiment: Inhibition of CYP3A4 (unknown origin) at 50 uM incubated for 15 mins by LC-MS/MS analysis; assay type: ADME
Cytochrome P450 3A4 [5] = target: T5, Cytochrome P450 3A4; experiment: Inhibition of CYP3A4 (unknown origin) at 50 uM preincubated for 3 mins followed by NADPH addition and measured after 5 to 15 mins by LC-MS/MS analysis; assay type: ADME; conditions: time 8-18 min
Cytochrome P450 3A4 [6] = target: T5, Cytochrome P450 3A4; experiment: Inhibition of CYP3A4 (unknown origin) at 50 uM incubated for 5 to 15 mins in absence of NADPH by LC-MS/MS analysis; assay type: ADME; conditions: time 5-15 min
CYP3A4 [7] = target: T4, CYP3A4; experiment: Inhibition of CYP3A4 (unknown origin) assessed as residual activity at 50 uM incubated for 5 to 15 mins in presence of ketoconazole; assay type: ADME; conditions: with ketoconazole, time 5-15 min, read-out: Activity
CYP3A4 [8] = target: T4, CYP3A4; experiment: Inhibition of CYP3A4 (unknown origin) assessed as remaining activity at 50 uM measured immediately (reference value: 100 %); assay type: ADME; conditions: read-out: Activity
CYP3A4 [9] = target: T4, CYP3A4; experiment: Inhibition of CYP3A4 (unknown origin) assessed as remaining activity at 50 uM measured 15 mins before dialysis (reference value: 87.2 +/- 2.3 %); assay type: ADME; conditions: read-out: Activity
CYP3A4 [10] = target: T4, CYP3A4; experiment: Inhibition of CYP3A4 (unknown origin) assessed as remaining activity at 50 uM measured 15 mins after dialysis (reference value: 53.8 +/- 2.9 %); assay type: ADME; conditions: read-out: Activity
[11] = Chemical reactivity of compound to NAC in PBS at pH 7.4 by UV spectrometric assay; assay type: physicochemical; conditions: buffer
[12] = Chemical reactivity of compound to NAL in PBS at pH 7.4 by UV spectrometric assay; assay type: physicochemical; conditions: buffer
[13] = Chemical reactivity of compound to serine in PBS at pH 7.4 by UV spectrometric assay; assay type: physicochemical; conditions: buffer
CYP3A4 [14] = target: T4, CYP3A4; experiment: Inhibition of CYP3A4 (unknown origin) assessed as remaining activity at 50 uM incubated for 15 mins (reference value: 85 +/- 3.4%); assay type: ADME; conditions: read-out: Activity
CYP3A4 [15] = target: T4, CYP3A4; experiment: Inhibition of CYP3A4 (unknown origin) assessed as remaining activity at 50 uM incubated for 15 mins in presence of 2 mM NAC; assay type: ADME; conditions: read-out: Activity
CYP3A4 [16] = target: T4, CYP3A4; experiment: Inhibition of CYP3A4 (unknown origin) assessed as remaining activity at 50 uM incubated for 15 mins in presence of 20 mM NAC; assay type: ADME; conditions: read-out: Activity
Cytochrome P450 3A4 [17] = target: T5, Cytochrome P450 3A4; experiment: Inhibition of wild type CYP3A4 (unknown origin) expressed in CHO cells using midazolam as substrate incubated for 6 hrs by LC-MS/MS analysis; assay type: ADME, cell-based
Cytochrome P450 3A4 [18] = target: Cytochrome P450 3A4 (Homo sapiens, UniProt P08684, C239S); experiment: Inhibition of CYP3A4 C239S mutant (unknown origin) expressed in CHO cells using midazolam as substrate incubated for 6 hrs by LC-MS/MS analysis; assay type: ADME, cell-based
Cytochrome P450 3A4 [19] = target: T5, Cytochrome P450 3A4; experiment: Time dependent inhibition of CYP3A4 (unknown origin) at 50 uM measured after 5 to 15 mins; assay type: ADME; conditions: time 5-15 min
Cytochrome P450 3A4 [20] = target: T5, Cytochrome P450 3A4; experiment: Time dependent inhibition of CYP3A4 (unknown origin) at 50 uM measured after 5 to 15 mins in presence of NADPH; assay type: ADME; conditions: time 5-15 min

T4 sequence (P08684 whole entry): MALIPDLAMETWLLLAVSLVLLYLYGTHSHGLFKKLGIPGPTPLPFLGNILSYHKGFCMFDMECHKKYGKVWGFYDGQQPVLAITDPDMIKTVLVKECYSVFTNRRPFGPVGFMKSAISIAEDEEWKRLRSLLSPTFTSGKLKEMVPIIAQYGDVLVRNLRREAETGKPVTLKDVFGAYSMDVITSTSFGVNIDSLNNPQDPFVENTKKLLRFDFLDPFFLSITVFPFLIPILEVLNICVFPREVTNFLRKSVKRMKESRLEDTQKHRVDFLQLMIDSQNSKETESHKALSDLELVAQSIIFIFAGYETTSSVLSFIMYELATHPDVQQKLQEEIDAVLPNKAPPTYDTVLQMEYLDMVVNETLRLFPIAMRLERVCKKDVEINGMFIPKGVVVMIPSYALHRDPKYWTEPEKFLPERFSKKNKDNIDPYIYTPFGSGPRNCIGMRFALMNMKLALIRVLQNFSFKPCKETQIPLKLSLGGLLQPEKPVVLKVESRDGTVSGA
T5 sequence (P08684 whole entry): as above
Sequence of CYP2C19 (P33261 whole entry): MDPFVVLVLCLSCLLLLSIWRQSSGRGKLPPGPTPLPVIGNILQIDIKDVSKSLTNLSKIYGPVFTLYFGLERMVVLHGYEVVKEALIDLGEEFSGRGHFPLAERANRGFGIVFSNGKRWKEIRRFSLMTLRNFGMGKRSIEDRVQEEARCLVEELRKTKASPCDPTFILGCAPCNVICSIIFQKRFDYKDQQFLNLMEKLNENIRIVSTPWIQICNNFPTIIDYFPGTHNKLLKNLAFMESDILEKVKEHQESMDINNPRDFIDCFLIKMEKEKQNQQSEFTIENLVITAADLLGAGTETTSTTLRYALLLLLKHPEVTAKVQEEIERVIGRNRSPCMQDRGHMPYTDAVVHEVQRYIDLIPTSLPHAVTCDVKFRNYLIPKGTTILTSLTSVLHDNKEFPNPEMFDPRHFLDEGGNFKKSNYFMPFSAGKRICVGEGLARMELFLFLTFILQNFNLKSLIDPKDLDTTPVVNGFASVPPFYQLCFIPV
Sequence of CYP2C9 (P11712 whole entry): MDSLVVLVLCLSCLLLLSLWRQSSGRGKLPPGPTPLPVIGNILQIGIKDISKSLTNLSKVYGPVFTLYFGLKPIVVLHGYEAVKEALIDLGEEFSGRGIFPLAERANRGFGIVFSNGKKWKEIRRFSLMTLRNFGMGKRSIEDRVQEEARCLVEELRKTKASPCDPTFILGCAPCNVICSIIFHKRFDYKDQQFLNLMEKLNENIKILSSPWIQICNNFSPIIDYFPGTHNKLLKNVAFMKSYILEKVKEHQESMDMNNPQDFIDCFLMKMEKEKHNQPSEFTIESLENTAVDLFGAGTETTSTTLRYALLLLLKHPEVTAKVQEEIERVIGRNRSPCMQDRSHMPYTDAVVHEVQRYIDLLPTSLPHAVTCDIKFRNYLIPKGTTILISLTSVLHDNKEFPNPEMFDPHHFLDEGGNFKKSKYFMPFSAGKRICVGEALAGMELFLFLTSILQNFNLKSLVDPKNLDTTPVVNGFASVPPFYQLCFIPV
Sequence of Cytochrome P450 3A4 (Homo sapiens, UniProt P08684, C239S) (P08684 2-503 C239S limits assumed): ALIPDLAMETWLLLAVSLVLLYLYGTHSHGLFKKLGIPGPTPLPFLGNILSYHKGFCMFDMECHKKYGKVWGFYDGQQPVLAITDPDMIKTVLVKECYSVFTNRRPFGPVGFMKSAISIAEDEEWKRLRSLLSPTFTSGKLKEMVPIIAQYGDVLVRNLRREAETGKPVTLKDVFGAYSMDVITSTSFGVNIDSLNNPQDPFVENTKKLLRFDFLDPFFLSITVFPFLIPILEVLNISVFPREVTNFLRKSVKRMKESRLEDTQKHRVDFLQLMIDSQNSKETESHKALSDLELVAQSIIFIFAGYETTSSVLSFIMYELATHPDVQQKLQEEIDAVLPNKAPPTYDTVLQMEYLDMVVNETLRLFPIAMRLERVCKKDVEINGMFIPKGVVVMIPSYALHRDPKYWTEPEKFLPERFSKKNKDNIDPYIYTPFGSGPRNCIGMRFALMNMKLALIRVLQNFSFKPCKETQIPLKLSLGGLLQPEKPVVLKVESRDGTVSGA
Sequence of CYP2E1 (P05181 whole entry): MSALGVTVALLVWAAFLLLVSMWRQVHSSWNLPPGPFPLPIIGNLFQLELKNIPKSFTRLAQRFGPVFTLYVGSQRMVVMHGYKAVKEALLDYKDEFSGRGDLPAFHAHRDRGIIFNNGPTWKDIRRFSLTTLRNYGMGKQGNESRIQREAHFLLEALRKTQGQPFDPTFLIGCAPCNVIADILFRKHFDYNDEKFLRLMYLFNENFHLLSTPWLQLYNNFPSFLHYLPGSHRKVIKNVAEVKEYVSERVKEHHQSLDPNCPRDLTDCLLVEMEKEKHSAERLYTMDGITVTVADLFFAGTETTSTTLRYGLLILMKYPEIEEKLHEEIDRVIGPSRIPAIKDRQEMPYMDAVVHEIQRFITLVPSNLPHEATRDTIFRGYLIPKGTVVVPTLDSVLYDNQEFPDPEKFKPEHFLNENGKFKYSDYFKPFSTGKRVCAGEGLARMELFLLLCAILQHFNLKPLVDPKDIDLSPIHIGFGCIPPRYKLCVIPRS
Sequence of CYP2D6 (P10635 whole entry): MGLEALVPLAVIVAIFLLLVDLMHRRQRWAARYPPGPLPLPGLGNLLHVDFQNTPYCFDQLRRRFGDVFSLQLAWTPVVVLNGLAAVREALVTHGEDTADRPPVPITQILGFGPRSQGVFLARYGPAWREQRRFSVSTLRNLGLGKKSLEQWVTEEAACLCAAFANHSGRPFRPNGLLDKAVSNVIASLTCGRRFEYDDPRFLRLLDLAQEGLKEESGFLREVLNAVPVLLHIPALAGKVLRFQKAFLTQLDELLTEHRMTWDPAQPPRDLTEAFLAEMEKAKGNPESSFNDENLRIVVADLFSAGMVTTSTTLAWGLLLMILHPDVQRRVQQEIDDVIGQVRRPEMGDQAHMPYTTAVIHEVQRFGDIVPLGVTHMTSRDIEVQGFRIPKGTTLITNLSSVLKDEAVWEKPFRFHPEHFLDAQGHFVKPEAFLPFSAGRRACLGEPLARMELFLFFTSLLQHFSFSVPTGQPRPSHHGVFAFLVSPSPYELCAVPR
Sequence of CYP3A5 (P20815 whole entry): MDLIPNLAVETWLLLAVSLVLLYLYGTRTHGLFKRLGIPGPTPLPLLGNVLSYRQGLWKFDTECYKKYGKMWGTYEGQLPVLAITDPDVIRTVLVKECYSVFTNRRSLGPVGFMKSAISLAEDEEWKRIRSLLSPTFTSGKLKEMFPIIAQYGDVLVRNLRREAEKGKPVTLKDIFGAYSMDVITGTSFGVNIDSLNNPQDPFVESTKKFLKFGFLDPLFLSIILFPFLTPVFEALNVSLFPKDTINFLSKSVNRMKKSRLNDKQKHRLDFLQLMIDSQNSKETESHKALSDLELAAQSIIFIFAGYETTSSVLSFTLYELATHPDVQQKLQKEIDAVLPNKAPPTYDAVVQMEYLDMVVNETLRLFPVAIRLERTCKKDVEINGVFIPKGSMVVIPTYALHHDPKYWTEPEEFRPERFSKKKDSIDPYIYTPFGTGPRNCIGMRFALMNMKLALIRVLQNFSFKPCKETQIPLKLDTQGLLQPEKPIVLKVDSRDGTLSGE

SMILES: COc1ccc2c(c[n+](C)c3c4cc5c(cc4ccc23)OCO5)c1OC.[Cl-] [CHELERYTHRINE CHLORIDE]
activity at 0.25 h, 50 µM (CYP1A2): > 50% | activity at 0.25 h, 50 µM (CYP2A6): > 50% | activity at 0.25 h, 50 µM (CYP2B6): > 50% | activity at 0.25 h, 50 µM (CYP2C19): > 50% | activity at 0.25 h, 50 µM (CYP2D6): > 50% | activity at 0.25 h, 50 µM (CYP2C9): > 50% | activity at 0.25 h, 50 µM (CYP3A4 [1]): 26.3% | activity at 0.25 h, 50 µM (CYP2E1): > 50% | activity at 0.25 h, 50 µM (CYP3A5): > 50% | inhibition (INH) (Cytochrome P450 3A4 [2]): Tde | inhibition (INH) (Cytochrome P450 3A4 [3]): Dose-Dependent Effect | inhibition at 0.25 h, 50 µM (CYP3A4 [4]): 75% | inhibition (INH) (Cytochrome P450 3A4 [5]): Active | inhibition (INH) (Cytochrome P450 3A4 [6]): Active | activity at 50 µM (CYP3A4 [7]): 50% | activity at 0 min, 50 µM (CYP3A4 [8]): 70.7% | activity at 0.25 h, 50 µM (CYP3A4 [9]): 43.8% | activity at 0.25 h, 50 µM (CYP3A4 [10]): 25.1% | Drug metabolism [11]: Metabolite_Detected | Drug metabolism [12]: Metabolite_Notdetected | Drug metabolism [13]: Metabolite_Notdetected | activity at 0.25 h, 50 µM (CYP3A4 [14]): 26% | activity at 0.25 h, 50 µM (CYP3A4 [15]): 49.9% | activity at 0.25 h, 50 µM (CYP3A4 [16]): 85.9% | inhibition (INH) (Cytochrome P450 3A4 [17]): Active | inhibition (INH) (Cytochrome P450 3A4 [18]): Not Active

TDI (Cytochrome P450 3A4 [19]): Not Active
SMILES: COc1ccc2c(c1OC)CN(C)c1c-2ccc2cc3c(cc12)OCO3 [DIHYDROCHELERYTHRINE]

TDI (Cytochrome P450 3A4 [20]): Active | Drug metabolism [11]: Metabolite_Notdetected | Drug metabolism [12]: Metabolite_Notdetected | Drug metabolism [13]: Metabolite_Notdetected
SMILES: COc1cc2c[n+](C)c3c4cc5c(cc4ccc3c2cc1OC)OCO5.[Cl-] [NITIDINE CHLORIDE]

From ChEMBL document CHEMBL5528051, “Chelerythrine Chloride is an Affinity-Labeling Inactivator of CYP3A4 by Modification of Cysteine239” (J Med Chem, 2024)
